# Patent EP0745595A1, “3-(3-Aryloxyphenyl)-1-(substituted methyl)-s-triazine-2,4,6-oxo or thiotrione herbicidal agents” (American Cyanamid Company, priority 1995, dated 1996)
# Assays:
# Assay type in all cases: in vivo
# GALIUM APARINE = assay: Postemergence herbicidal evaluation, GALAP (Galium); parameters: key to GALAP rating / Herbicidal effect rating, GALAP / GALAP: 0-9 visual rating scale vs untreated control
# Method in brief: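 In this postemergence greenhouse test, two-week-old Galium aparine seedlings grown in jiffy flats received a 40 psi spray of compound in acetone/water (50/50) with 0.5% TWEEN®20 surfactant. After four to five weeks, stand, vigor, malformation, size, chlorosis and overall appearance were compared with untreated controls on a 0-9 scale, averaging multiple tests.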
# ZEA MAYS L. = assay: Preemergence herbicidal evaluation, ZEAMX (Corn, Field); conditions: rated four to five weeks after treatment
# Method in brief: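 Preemergence herbicidal activity on field corn: seeds in potting soil were sown atop roughly one inch of soil in separate pint cups, treated, and grown under standard greenhouse care. Four to five weeks post-treatment, stand, vigor, malformation, size, chlorosis and overall appearance were compared with a control and scored 0-9.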
# [1] = tested on: ABUTILON THEOPHRASTI, MEDIC.; assay: Postemergence herbicidal evaluation, ABUTH (Velvetleaf)
# Method in brief: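 This postemergence herbicide test used two-week-old velvetleaf seedlings grown in jiffy flats. Each compound was sprayed at 40 psi as a dispersion in 50/50 acetone/water with 0.5% TWEEN®20 surfactant. Plants then received routine greenhouse care. After four to five weeks, injury was scored visually on a 0-9 scale against a control, and replicate tests were averaged.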
# [2] = tested on: ECHINOCHLOA CRUS-GALLI, (L) BEAU; assay: Postemergence herbicidal evaluation, ECHCG (Barnyardgrass); parameters: key to ECHCG rating / Herbicidal effect rating, ECHCG / ECHCG: 0-9 visual rating scale vs untreated control
# Method in brief: (§1)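 Postemergence foliar spray at approximately 0.125–0.500 kg/ha onto two-week seedlings; greenhouse hold, then 0–9 visual injury rating after 4–5 weeks.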
# [3] = tested on: GLYCINE MAX(L) MERR. CV. WILLIAMS; assay: Preemergence herbicidal evaluation, GLXMAW (Soybean, Williams); conditions: rated four to five weeks after treatment
# Method in brief: (§2)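 Rated 0-9 by visual comparison with control (stand, vigor, malformation, size, chlorosis, overall appearance) four to five weeks after preemergence soil spray. Dose equivalent to about 0.125 to 0.50 kg per hectare, applied in aqueous acetone to freshly seeded cups kept in greenhouse.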
# [4] = tested on: ORYZA SATIVA, L. TEBONNET; assay: Rice tolerance to post-transplant applications under flooded paddy conditions, ORYSAT (Rice, Tebonnet); conditions: post-transplant rice, 3-4 weeks after treatment
# Method in brief: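 Rated on a visual 0–9 scale against untreated plants 3–4 weeks after application, rice (cv. Tebonnet) tolerance was tested by applying compounds (approx. 0.5–0.063 kg/ha, acetone/water 50/50) to flooded soil three days post-transplant, water kept 1.5–3 cm deep.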
# […], PRESL. = Preemergence weed control under flooded paddy conditions, MOOVA (Monochoria); conditions: 0.500 kg/ha, preemergence, 3-4 weeks after treatment
# Method in brief: (§3)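 Visual 0-9 rating against untreated control, covering stand, vigor, malformation, size and chlorosis, scored three to four weeks post-treatment in a greenhouse. Application was into 1.5-3 cm flood water over silt loam sown at 0.5 cm. The 50/50 v/v aqueous/acetone doses were about 0.5, 0.25, 0.125 and 0.063 kg/ha.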
# [5] = tested on: ECHINOCHLOA ORYZOIDES (ARD.)FRITSCH; assay: Preemergence weed control under flooded paddy conditions, ECHORC (Watergrass (Calif.)); conditions: 0.500 kg/ha, preemergence, 3-4 weeks after treatment
# Method in brief: as §3
# [6] = tested on: SETARIA VIRIDIS, (L) BEAU; assay: Postemergence herbicidal evaluation, SETVI (Foxtail, Green); parameters: key to SETVI rating / Herbicidal effect rating, SETVI / SETVI: 0-9 visual rating scale vs untreated control
# Method in brief: as §1
# CASSIA OBTUSIFOLIA, L. [7] = assay: Postemergence herbicidal evaluation, CASOB (Sicklepod); parameters: key to CASOB rating / Herbicidal effect rating, CASOB / CASOB: 0-9 visual rating scale vs untreated control
# Method in brief: as §1
# CYPERUS IRIA = assay: Preemergence weed control under flooded paddy conditions, CYPIR (Rice Flatsedge); conditions: 0.500 kg/ha, preemergence, 3-4 weeks after treatment
# Method in brief: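 This preemergence test mimicked flooded paddy conditions: rice flatsedge propagules were sown in the upper 0.5 cm of silt loam in undrained 32 oz. containers (10.5 cm diameter), with water held 1.5 to 3 cm over the soil. After normal greenhouse care, plants were scored 0-9 for stand, vigor, malformation, size, chlorosis and appearance relative to controls.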
# [8] = tested on: AMBROSIA ARTEMISIIFOLIA, L.; assay: Postemergence herbicidal evaluation, AMBEL (Ragweed, Common)
# Method in brief: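 Postemergence herbicidal activity on AMBEL (common ragweed) was assessed on two-week-old seedlings grown in jiffy flats. Treatment solutions of 50/50 acetone/water with 0.5% TWEEN®20 surfactant were sprayed at 40 psi. After four to five weeks in the greenhouse, plants were scored 0-9 against a control for stand, vigor, malformation, size, chlorosis and overall appearance, with multiple tests averaged.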
# [9] = tested on: CYPERUS SEROTINUS, ROTTB.; assay: Preemergence weed control under flooded paddy conditions, CYPSE (Flatsedge); conditions: 0.500 kg/ha, preemergence, 3-4 weeks after treatment
# Method in brief: as §3
# SAGITTARIA PYGMAEA, L. = assay: Preemergence weed control under flooded paddy conditions, SAGPY (Arrowhead (Pygmaea)); conditions: 0.500 kg/ha, preemergence, 3-4 weeks after treatment
# Method in brief: as §3
# IPOMOEA SPP. = assay: Postemergence herbicidal evaluation, IPOSS (Morningglory spp.)
# Method in brief: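 In this greenhouse postemergence herbicide test on Ipomoea spp. (morningglory), compounds in 50/50 acetone/water with 0.5% TWEEN®20 were sprayed at 40 psi onto seedlings about two weeks old grown in jiffy flats. After four to five weeks, injury was scored on a 0-9 scale covering stand, vigor, malformation, size, chlorosis and overall appearance versus control, with repeat tests averaged.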
# [10] = tested on: ORYZA SATIVA, L. TEBONNET; assay: Preemergence herbicidal evaluation, ORYSAT (Rice, Tebonnet); conditions: rated four to five weeks after treatment
# Source text: (§4) Results of herbicide evaluation are expressed on a rating scale (0-9). The scale is based upon a visual observation of plant stand, vigor, malformation, size, chlorosis and overall plant appearance as compared with a control.
# (§5) The preemergence herbicidal activity of the test compounds of the present invention is exemplified by the following tests in which the seeds of a variety of monocotyledonous and dicotyledonous plants are separately mixed with potting soil and planted on top of approximately one inch of soil in separate pint cups. […] The treated cups are then placed on greenhouse benches, watered and cared for in accordance with conventional greenhouse procedures. From four to five weeks after treatment, the tests are terminated and each cup is examined and rated according to the rating system provided in Example 40.
# (§6) The compounds evaluated are reported by compound number given in Example 40.
# CHENOPODIUM ALBUM, L. [11] = assay: Postemergence herbicidal evaluation, CHEAL (Lambsquarters, Common)
# Method in brief: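 Postemergence herbicidal activity on Chenopodium album was tested by spraying two-week-old seedlings grown in jiffy flats with compound in acetone/water (50/50) plus 0.5% TWEEN®20, using a 40 psi nozzle. Four to five weeks after treatment, stand, vigor, malformation, size, chlorosis and overall appearance were scored 0-9 relative to controls, with repeat tests averaged.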
# [12] = tested on: TRITICUM AESTIVUM, CV. APOLLO; assay: Preemergence herbicidal evaluation, TRZAWO (Wheat, Winter, CV. APOLLO); conditions: rated four to five weeks after treatment
# Source text: as §4, §5, §6
# [13] = tested on: AMBROSIA ARTEMISIIFOLIA, L.; assay: Preemergence herbicidal evaluation, AMBEL (Ragweed, Common); conditions: rated four to five weeks after treatment
# Method in brief: as §2
# CASSIA OBTUSIFOLIA, L. [14] = assay: Preemergence herbicidal evaluation, CASOB (Sicklepod); conditions: Rate 0.500 kg/ha, rated four to five weeks after treatment
# Method in brief: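 Preemergence herbicidal activity against sicklepod was assessed by planting seed mixed with potting soil atop about one inch of soil in pint cups. After treatment the cups were watered and handled per standard greenhouse practice. Tests ended four to five weeks later, with plant stand, vigor, malformation, size, chlorosis and overall appearance scored 0-9 relative to a control.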
# CHENOPODIUM ALBUM, L. [15] = assay: Preemergence herbicidal evaluation, CHEAL (Lambsquarters, Common); conditions: rated four to five weeks after treatment
# Method in brief: as §2
SMILES,ZEAMX herbicidal rating (ZEA MAYS L.; Rate 0.125 kg/ha),ZEAMX herbicidal rating (ZEA MAYS L.; Rate 0.250 kg/ha),ZEAMX herbicidal rating (ZEA MAYS L.; Rate 0.500 kg/ha),GLXMAW herbicidal rating ([3]; Rate 0.125 kg/ha),GLXMAW herbicidal rating ([3]; Rate 0.250 kg/ha),GLXMAW herbicidal rating ([3]; Rate 0.500 kg/ha),"Herbicidal effect rating, ORYSAT ([4]; 0.500 kg/ha)",SETVI rating ([6]; Rate 0.125 kg/ha),SETVI rating ([6]; Rate 0.250 kg/ha),SETVI rating ([6]; Rate 0.500 kg/ha),"CASOB rating (CASSIA OBTUSIFOLIA, L. [7]; Rate 0.125 kg/ha)","CASOB rating (CASSIA OBTUSIFOLIA, L. [7]; Rate 0.250 kg/ha)","CASOB rating (CASSIA OBTUSIFOLIA, L. [7]; Rate 0.500 kg/ha)",IPOSS rating (IPOMOEA SPP.; Rate 0.125 kg/ha),IPOSS rating (IPOMOEA SPP.; Rate 0.250 kg/ha),IPOSS rating (IPOMOEA SPP.; Rate 0.500 kg/ha),ORYSAT herbicidal rating ([10]; Rate 0.125 kg/ha),ORYSAT herbicidal rating ([10]; Rate 0.250 kg/ha),ORYSAT herbicidal rating ([10]; Rate 0.500 kg/ha),other results
"COC(=O)Cn1c(=O)n(C)c(=O)n(-c2cc(Oc3ccc(C#N)cc3)ccc2[N+](=O)[O-])c1=O [Compound 32, Methyl 3-[5-(p-cyanophenoxy)-2-nitrophenyl]-tetrahydro-5-methyl-2,4,6-trioxo-s-triazine-1(2H)-acetate]",0.0,0.0,0.0,0.0,0.0,0.0,0.0,0.0,0.0,0.0,0.0,0.0,0.0,0.0,0.0,0.0,2.0,2.0,2.0,"GALAP rating (GALIUM APARINE; Rate 0.125 kg/ha): 0.0; GALAP rating (GALIUM APARINE; Rate 0.250 kg/ha): 0.0; GALAP rating (GALIUM APARINE; Rate 0.500 kg/ha): 0.0; ABUTH rating ([1]; Rate 0.125 kg/ha): 0.0; ABUTH rating ([1]; Rate 0.250 kg/ha): 0.0; ABUTH rating ([1]; Rate 0.500 kg/ha): 0.0; ECHCG rating ([2]; Rate 0.125 kg/ha): 0.0; ECHCG rating ([2]; Rate 0.250 kg/ha): 0.0; ECHCG rating ([2]; Rate 0.500 kg/ha): 0.0; Herbicidal effect rating, MOOVA ([…], PRESL.): 0.0; Herbicidal effect rating, ECHORC [5]: 0.0; Herbicidal effect rating, CYPIR (CYPERUS IRIA): 0.0; AMBEL rating ([8]; Rate 0.125 kg/ha): 0.0; AMBEL rating ([8]; Rate 0.250 kg/ha): 0.0; AMBEL rating ([8]; Rate 0.500 kg/ha): 0.0; Herbicidal effect rating, CYPSE [9]: 0.0; Herbicidal effect rating, SAGPY (SAGITTARIA PYGMAEA, L.): 0.0"
CC(C)OC(=O)Cn1c(=O)n(C)c(=O)n(-c2cc(Oc3ncc(C(F)(F)F)cc3Cl)ccc2Br)c1=O [Compound 44],0.0,0.0,0.0,0.0,0.0,0.0,3.0,9.0,9.0,9.0,9.0,9.0,9.0,9.0,9.0,9.0,0.0,0.0,0.0,"CHEAL rating (CHENOPODIUM ALBUM, L. [11]; Rate 0.125 kg/ha): 9.0; CHEAL rating (CHENOPODIUM ALBUM, L. [11]; Rate 0.250 kg/ha): 9.0; CHEAL rating (CHENOPODIUM ALBUM, L. [11]; Rate 0.500 kg/ha): 9.0; Herbicidal effect rating, ORYSAT ([4]; 0.063 kg/ha): 1.0; Herbicidal effect rating, ORYSAT ([4]; 0.125 kg/ha): 1.0; Herbicidal effect rating, ORYSAT ([4]; 0.250 kg/ha): 2.0; TRZAWO herbicidal rating ([12]; Rate 0.125 kg/ha): 0.0; TRZAWO herbicidal rating ([12]; Rate 0.250 kg/ha): 0.0; TRZAWO herbicidal rating ([12]; Rate 0.500 kg/ha): 0.0; AMBEL herbicidal rating ([13]; Rate 0.125 kg/ha): 0.0; AMBEL herbicidal rating ([13]; Rate 0.250 kg/ha): 0.0; AMBEL herbicidal rating ([13]; Rate 0.500 kg/ha): 0.0; CASOB herbicidal rating (CASSIA OBTUSIFOLIA, L. [14]): 0.0; CHEAL herbicidal rating (CHENOPODIUM ALBUM, L. [15]; Rate 0.125 kg/ha): 9.0; CHEAL herbicidal rating (CHENOPODIUM ALBUM, L. [15]; Rate 0.250 kg/ha): 9.0; CHEAL herbicidal rating (CHENOPODIUM ALBUM, L. [15]; Rate 0.500 kg/ha): 9.0"
